From PubChem BioAssay (NCI)
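Exposure lasted 48 hours, with cells grown in 96-well plates and compounds tested at five concentrations. GI50: concentration for 50% inhibition of growth. Definition used: TGI = concentration required for complete inhibition of growth.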 Where a SMILES comes first, the peptide text is derived from it. The star is where a group is joined. Boc = CC(C)(C)OC(=O)*

What was measured:
Assay in all cases: growth of human tumour cells (NCI), 48 h
786-0 renal = tested on: 786-0 renal
ACHN renal = tested on: ACHN renal
CAKI-1 renal = tested on: CAKI-1 renal
EKVX NSCLC = tested on: EKVX NSCLC
HOP-92 NSCLC = tested on: HOP-92 NSCLC
OVCAR-3 ovarian = tested on: OVCAR-3 ovarian
SK-MEL-5 melanoma = tested on: SK-MEL-5 melanoma
SNB-19 CNS = tested on: SNB-19 CNS
A498 renal = tested on: A498 renal
MDA-MB-435 = tested on: MDA-MB-435

SMILES	TGI (786-0 renal)	TGI (ACHN renal)	TGI (CAKI-1 renal)	TGI (EKVX NSCLC)	TGI (HOP-92 NSCLC)	TGI (OVCAR-3 ovarian)	TGI (SK-MEL-5 melanoma)	TGI (SNB-19 CNS)	GI50 (A498 renal)	TGI (A498 renal)	GI50 (CAKI-1 renal)	GI50 (EKVX NSCLC)	GI50 (HOP-92 NSCLC)	GI50 (SK-MEL-5 melanoma)	GI50 (SNB-19 CNS)	TGI (MDA-MB-435)	GI50 (ACHN renal)	GI50 (MDA-MB-435)	GI50 (OVCAR-3 ovarian)
CCNC(=O)/C=C/CCC#Cc1ccc(-c2ccc(-c3cccs3)s2)s1	> 100 µM	> 100 µM	> 100 µM	> 100 µM	> 100 µM	> 100 µM	> 100 µM	> 100 µM	–	–	–	–	–	–	–	–	–	–	–
CCOC(=O)c1c2c(n3ccc(NC(=O)OC(C)(C)C)cc13)C(=O)c1ncccc1C2=O	–	–	1.58 µM	2.03 µM	0.927 µM	–	0.388 µM	1.36 µM	0.0339 µM	4.44 µM	0.0389 µM	0.168 µM	0.137 µM	0.174 µM	0.159 µM	–	–	–	–
COc1ccc(C(=C(I)c2ccccc2)c2ccc(OC)cc2)cc1	> 100 µM	> 100 µM	> 100 µM	> 100 µM	> 100 µM	> 100 µM	> 100 µM	> 100 µM	–	–	–	–	–	–	–	> 100 µM	–	–	–
CO/C(=N\N=C\c1ccc(Cl)cc1Cl)c1ccncc1	> 10 µM	> 10 µM	> 10 µM	> 10 µM	> 10 µM	> 10 µM	–	> 10 µM	–	–	–	–	–	–	–	> 10 µM	–	–	–
N=S(=O)(c1ccccc1)c1ccccc1[N+](=O)[O-] (stereo unspecified)	> 100 µM	> 100 µM	> 100 µM	> 100 µM	–	> 100 µM	> 100 µM	> 100 µM	–	> 100 µM	–	–	–	–	–	–	–	–	–
O=C(c1ccccc1)c1c(C(F)(F)F)n([O-])c2cc(Cl)c(Cl)cc2[n+]1=O	0.959 µM	2.03 µM	2.93 µM	6.96 µM	19.9 µM	0.815 µM	5.13 µM	3 µM	–	–	–	–	–	–	–	3.08 µM	–	–	–
COC(=O)c1ccccc1C#CCCCOS(C)(=O)=O	> 10 µM	> 10 µM	> 10 µM	> 10 µM	–	> 10 µM	> 10 µM	> 10 µM	–	> 10 µM	–	–	–	–	–	> 10 µM	–	–	–
C[C@H](CC[C@@H](O)C(C)(C)O)[C@H]1CC[C@@]2(C)[C@@H]3CC=C4[C@@H](CC[C@H](O)C4(C)C)[C@]3(C)C(=O)C[C@]12C	> 50 µM	> 50 µM	–	> 50 µM	–	> 50 µM	> 50 µM	> 50 µM	–	> 50 µM	–	–	–	–	–	> 50 µM	–	–	–
COc1cccc2c1C1(O)C2CCCC12OCCCO2 (stereo unspecified)	> 100 µM	> 100 µM	> 100 µM	–	–	> 100 µM	> 100 µM	> 100 µM	–	> 100 µM	–	–	–	–	–	–	–	–	–
CC(=NCCN(CCN=C(C)c1c(O)cc(C)oc1=O)CCN=C(C)c1c(O)cc(C)oc1=O)c1c(O)cc(C)oc1=O	> 100 µM	> 100 µM	–	> 100 µM	–	–	> 100 µM	> 100 µM	–	–	–	–	–	–	–	> 100 µM	–	–	–
O=C(NCCCCNCCCNC(=O)c1ccccc1)c1ccccc1	> 100 µM	> 100 µM	–	> 100 µM	> 100 µM	> 100 µM	> 100 µM	> 100 µM	–	> 100 µM	–	–	–	–	–	> 100 µM	–	–	–
S=C1C(=Nc2ccccc2)N(c2ccccc2)/C(=N\c2ccccn2)N1c1ccccc1	27.6 µM	15.9 µM	29 µM	29.1 µM	25.7 µM	–	27.2 µM	29.9 µM	–	30.4 µM	–	–	–	–	–	28.5 µM	–	–	–
C=C(CC(=O)Nc1ccc(C(=O)OC)o1)C(=O)OC	39.6 µM	34.6 µM	41.9 µM	45 µM	> 100 µM	–	43.1 µM	> 100 µM	–	> 100 µM	–	–	–	–	–	59 µM	–	–	–
CC(=Nc1c2ccccc2nc2ccccc12)N(C)C	> 100 µM	76.4 µM	> 100 µM	> 100 µM	37.2 µM	46.5 µM	27.8 µM	> 100 µM	–	–	–	–	–	–	–	> 100 µM	–	–	–
CCN(CC)C(=S)N/N=C/c1ccccn1	19 µM	10.1 µM	> 100 µM	> 100 µM	2.44 µM	11 µM	0.542 µM	> 100 µM	–	–	–	–	–	–	–	> 100 µM	–	–	–
CC(=O)NC1C(OCc2ccccc2)OC(CO)C(O)C1OCC(=O)NC(C)C(=O)NC(CCC(=O)NCCCCCNc1c2ccccc2nc2cccc([N+](=O)[O-])c12)C(N)=O (stereo unspecified)	0.000206 µM	< 0.0001 µM	< 0.0001 µM	–	0.00311 µM	–	0.00124 µM	–	–	< 0.0001 µM	–	–	–	–	–	< 0.0001 µM	–	–	–
COC(=O)C(Cc1c[nH]c2ccccc12)NC(=O)C(Cc1c[nH]c2ccccc12)NC(=O)C(Cc1c[nH]c2ccccc12)NC(=O)C(Cc1c[nH]c2ccccc12)NC(=O)OC(C)(C)C (stereo unspecified) (Boc-WWWW-OMe; configuration not given here)	> 100 µM	> 100 µM	> 100 µM	–	–	40.2 µM	> 100 µM	> 100 µM	–	–	–	–	–	–	–	> 100 µM	–	–	–
C1#Cc2ccccc2OCCOc2ccccc2C#Cc2ccccc2OCCOc2ccccc21	28.8 µM	37.9 µM	40.7 µM	98.9 µM	–	39.3 µM	58.7 µM	> 100 µM	–	37.8 µM	–	–	–	–	–	> 100 µM	–	–	–
O=c1[nH]c(=O)n(COCc2ccccc2)c2ccc([N+](=O)[O-])cc12	> 100 µM	> 100 µM	> 100 µM	> 100 µM	> 100 µM	> 100 µM	> 100 µM	–	–	> 100 µM	–	–	–	–	–	> 100 µM	–	–	–
Cc1cc(=O)n2nc(CSc3nnc(N)s3)sc2n1	> 100 µM	> 100 µM	> 100 µM	> 100 µM	> 100 µM	> 100 µM	> 100 µM	> 100 µM	–	–	–	–	–	–	–	> 100 µM	–	–	–
Cc1ccc(S(=O)(=O)NC(=O)NCCC(=O)O)cc1	> 100 µM	> 100 µM	–	–	> 100 µM	–	> 100 µM	> 100 µM	–	–	–	–	–	–	–	–	–	–	–
[N-]=[N+]=NC1CC(n2cc(COCC(F)(F)F)c(=O)[nH]c2=O)OC1CO (stereo unspecified)	> 100 µM	> 100 µM	> 100 µM	> 100 µM	> 100 µM	> 100 µM	> 100 µM	> 100 µM	–	> 100 µM	–	–	–	–	–	–	–	–	–
Nc1ccccc1NC(=O)CCCCCCC(=O)Nc1ccc2c(c1)/C(=C/c1ccc[nH]1)C(=O)N2	–	> 100 µM	–	–	–	> 100 µM	> 100 µM	> 100 µM	3.17 µM	> 100 µM	–	–	–	> 100 µM	> 100 µM	> 100 µM	15.1 µM	14.7 µM	5.42 µM
